Measured values: ChEMBL document CHEMBL5346971, “Discovery of the First Irreversible HDAC6 Isoform Selective Inhibitor with Potent Anti-Multiple Myeloma Activity” (J Med Chem, 2023)
pIC50: −log10 of the molar value. Calls of active or inactive are those of the source. No cut-off for these calls is given here.

Legend:
[1] = biological target: T1, Protein deacetylase HDAC6 (Homo sapiens) (UniProt Q9UBN7); experiment: Inhibition of HDAC6 in human A549 cells assessed as acetyl alpha-tubulin level at 2 uM incubated for 5 hrs by western blot analysis relative to control; assay type: cell-based
T1 sequence (whole entry): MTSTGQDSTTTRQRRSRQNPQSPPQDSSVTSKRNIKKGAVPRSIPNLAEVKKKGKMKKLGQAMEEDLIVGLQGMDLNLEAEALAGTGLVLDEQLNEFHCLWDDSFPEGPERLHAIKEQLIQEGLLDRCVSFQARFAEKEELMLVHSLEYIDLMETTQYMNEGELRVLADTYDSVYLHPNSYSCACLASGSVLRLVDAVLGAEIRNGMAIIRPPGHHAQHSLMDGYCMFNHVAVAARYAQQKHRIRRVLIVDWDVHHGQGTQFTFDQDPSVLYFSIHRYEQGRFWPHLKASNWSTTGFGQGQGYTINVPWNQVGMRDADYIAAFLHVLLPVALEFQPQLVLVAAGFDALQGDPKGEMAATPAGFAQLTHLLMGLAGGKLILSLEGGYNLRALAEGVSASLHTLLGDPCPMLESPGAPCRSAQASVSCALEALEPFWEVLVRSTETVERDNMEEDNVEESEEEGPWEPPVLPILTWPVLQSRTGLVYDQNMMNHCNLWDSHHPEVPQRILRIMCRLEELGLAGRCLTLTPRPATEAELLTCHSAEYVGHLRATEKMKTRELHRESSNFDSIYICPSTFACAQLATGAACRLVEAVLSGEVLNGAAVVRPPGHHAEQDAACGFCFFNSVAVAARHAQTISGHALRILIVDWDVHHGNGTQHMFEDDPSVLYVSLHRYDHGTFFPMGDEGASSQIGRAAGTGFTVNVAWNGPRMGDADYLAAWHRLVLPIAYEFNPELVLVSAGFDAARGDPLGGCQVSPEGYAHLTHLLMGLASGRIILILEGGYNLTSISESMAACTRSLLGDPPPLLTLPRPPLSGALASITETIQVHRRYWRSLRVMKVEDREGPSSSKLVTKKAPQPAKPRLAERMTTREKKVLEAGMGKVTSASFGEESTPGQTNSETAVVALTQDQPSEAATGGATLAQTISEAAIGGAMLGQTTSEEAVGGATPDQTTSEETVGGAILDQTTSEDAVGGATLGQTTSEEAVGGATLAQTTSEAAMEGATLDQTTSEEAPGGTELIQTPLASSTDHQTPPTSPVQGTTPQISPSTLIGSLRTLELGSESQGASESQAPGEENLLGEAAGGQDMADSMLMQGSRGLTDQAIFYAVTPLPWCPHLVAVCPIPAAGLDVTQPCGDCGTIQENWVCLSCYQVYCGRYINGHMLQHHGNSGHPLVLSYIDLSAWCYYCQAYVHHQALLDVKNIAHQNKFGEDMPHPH

[2] = biological target: T2, Class 1 histone deacetylase (Homo sapiens) (UniProt Q13547+O15379+Q92769+Q9BY41); experiment: Inhibition of class 1 HDAC in human A549 cells assessed as acetyl histone H4 level at 2 uM incubated for 5 hrs by western blot analysis relative to control; assay type: cell-based
T2 sequence (O15379 whole entry, looked up, the tested form may be a part): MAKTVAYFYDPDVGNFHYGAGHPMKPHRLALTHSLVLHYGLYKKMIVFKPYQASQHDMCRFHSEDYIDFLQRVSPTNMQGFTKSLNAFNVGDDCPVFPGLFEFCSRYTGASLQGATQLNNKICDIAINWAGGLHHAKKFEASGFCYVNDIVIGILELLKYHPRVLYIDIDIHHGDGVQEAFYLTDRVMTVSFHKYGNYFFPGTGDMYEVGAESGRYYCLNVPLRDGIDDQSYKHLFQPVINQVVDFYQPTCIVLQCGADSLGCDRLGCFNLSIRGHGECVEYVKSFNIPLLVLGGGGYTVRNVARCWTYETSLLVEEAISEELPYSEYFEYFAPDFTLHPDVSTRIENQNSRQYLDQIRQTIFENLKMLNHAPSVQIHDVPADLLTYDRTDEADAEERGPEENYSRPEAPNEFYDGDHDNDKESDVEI
T2 sequence (Q13547 whole entry, looked up, the tested form may be a part): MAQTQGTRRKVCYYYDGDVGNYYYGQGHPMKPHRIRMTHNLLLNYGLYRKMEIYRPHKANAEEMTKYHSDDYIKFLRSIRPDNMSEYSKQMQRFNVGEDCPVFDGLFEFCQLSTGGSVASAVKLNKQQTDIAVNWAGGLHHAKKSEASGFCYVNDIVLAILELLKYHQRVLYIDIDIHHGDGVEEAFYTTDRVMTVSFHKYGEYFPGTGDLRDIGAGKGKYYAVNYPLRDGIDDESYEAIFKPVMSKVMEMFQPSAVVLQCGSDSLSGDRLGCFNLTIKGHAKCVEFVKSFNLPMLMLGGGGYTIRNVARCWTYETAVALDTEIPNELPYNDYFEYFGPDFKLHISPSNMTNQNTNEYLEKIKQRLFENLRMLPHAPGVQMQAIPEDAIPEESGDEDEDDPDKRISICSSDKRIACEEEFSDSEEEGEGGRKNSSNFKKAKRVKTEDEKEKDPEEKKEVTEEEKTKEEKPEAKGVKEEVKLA
T2 sequence (Q92769 whole entry, looked up, the tested form may be a part): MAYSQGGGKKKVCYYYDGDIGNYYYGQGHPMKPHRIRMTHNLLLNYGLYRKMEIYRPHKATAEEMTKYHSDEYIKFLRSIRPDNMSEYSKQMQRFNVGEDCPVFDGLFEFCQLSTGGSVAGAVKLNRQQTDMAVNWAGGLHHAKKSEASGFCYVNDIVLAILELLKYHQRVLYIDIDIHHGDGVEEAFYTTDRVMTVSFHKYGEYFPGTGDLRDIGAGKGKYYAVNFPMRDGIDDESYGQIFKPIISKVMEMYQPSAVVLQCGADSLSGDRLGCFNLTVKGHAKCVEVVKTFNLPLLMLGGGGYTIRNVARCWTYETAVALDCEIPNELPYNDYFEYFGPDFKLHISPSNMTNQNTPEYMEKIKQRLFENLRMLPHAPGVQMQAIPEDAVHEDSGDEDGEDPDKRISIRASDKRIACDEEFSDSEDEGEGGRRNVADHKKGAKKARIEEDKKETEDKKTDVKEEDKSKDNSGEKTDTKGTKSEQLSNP
T2 sequence (Q9BY41 whole entry, looked up, the tested form may be a part): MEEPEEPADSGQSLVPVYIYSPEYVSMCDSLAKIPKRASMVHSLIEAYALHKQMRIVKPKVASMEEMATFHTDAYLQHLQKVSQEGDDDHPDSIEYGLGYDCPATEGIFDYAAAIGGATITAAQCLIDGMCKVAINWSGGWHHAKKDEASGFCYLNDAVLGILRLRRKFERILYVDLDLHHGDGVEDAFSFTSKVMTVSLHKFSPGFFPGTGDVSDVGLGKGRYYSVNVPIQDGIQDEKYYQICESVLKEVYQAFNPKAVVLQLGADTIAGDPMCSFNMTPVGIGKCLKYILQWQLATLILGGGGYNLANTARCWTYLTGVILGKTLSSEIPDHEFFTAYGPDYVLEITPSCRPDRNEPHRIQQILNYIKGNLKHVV

[3] = biological target: T3, Protein deacetylase HDAC6 (Homo sapiens, UniProt Q9UBN7); experiment: Inhibition of N-terminal GST-tagged human full length recombinant HDAC6 (1 to 1215 residues) expressed in Sf9 cells using Boc-Lys(acetyI)-AMC as substrate preincubated with enzyme for 1 hr followed by substrate addition and measured after 30 mins by fluorescence based analysis
T3 sequence (Q9UBN7 whole entry): T1 sequence (whole entry)

Homo sapiens = species: Homo sapiens; experiment: Selectivity index, ratio of IC50 for inhibition of C-terminal FLAG-tagged human full length recombinant HDAC2 (1 to 488 residues) expressed in Sf9 cells to IC50 for inhibition of N-terminal GST-tagged human full length recombinant HDAC6 (1 to 1215 residues) expressed in Sf9 cells
[4] = biological target: T2, Class 1 histone deacetylase (Homo sapiens); experiment: Irreversible inhibition of class 1 HDAC in human A549 cells assessed as acetyl histone H4 level at 0.4 uM incubated for 5 hrs followed by drug wash-out and measured immediately after drug wash-out by western blot analysis relative to control; assay type: cell-based
[5] = biological target: T2, Class 1 histone deacetylase (Homo sapiens); experiment: Irreversible inhibition of class 1 HDAC in human A549 cells assessed as acetyl histone H4 level at 0.4 uM incubated for 5 hrs followed by drug wash-out for 1 hr by western blot analysis relative to control; assay type: cell-based
[6] = biological target: T2, Class 1 histone deacetylase (Homo sapiens); experiment: Irreversible inhibition of class 1 HDAC in human A549 cells assessed as acetyl histone H4 level at 0.4 uM incubated for 5 hrs followed by drug wash-out for 6 hrs by western blot analysis relative to control; assay type: cell-based
[7] = biological target: T2, Class 1 histone deacetylase (Homo sapiens); experiment: Irreversible inhibition of class 1 HDAC in human A549 cells assessed as acetyl histone H4 level at 0.4 uM incubated for 5 hrs followed by drug wash-out for 24 hrs by western blot analysis relative to control; assay type: cell-based
[8] = biological target: T2, Class 1 histone deacetylase (Homo sapiens); experiment: Irreversible inhibition of class 1 HDAC in human A549 cells assessed as acetyl histone H3 level at 0.4 uM incubated for 5 hrs followed by drug wash-out and measured immediately after drug wash-out by western blot analysis relative to control; assay type: cell-based
[9] = biological target: T1, Protein deacetylase HDAC6 (Homo sapiens); experiment: Irreversible inhibition of HDAC6 in human A549 cells assessed as acetyl alpha-tubulin level at 0.4 uM incubated for 5 hrs followed by drug wash-out for 6 hrs by western blot analysis relative to control; assay type: cell-based
[10] = Effect on HDAC6 protein expression in human A549 cells assessed as change in HDAC6 protein expression at 0.4 uM incubated for 5 hrs followed by drug wash-out for 1 hr by western blot analysis relative to control; assay type: functional
Histone deacetylase 4 = Histone deacetylase 4 (Homo sapiens, UniProt P56524); experiment: Inhibition of N-terminal GST-tagged/C-terminal His-tagged human HDAC4 (627 to 1084 residues) expressed in baculovirus-infected Sf9 cells using Boc-Lys(trifluoroacety1)-AMC as substrate preincubated with enzyme for 1 hr followed by substrate addition and measured after 30 mins by fluorescence based analysis
Sequence of Histone deacetylase 4 (P56524 whole entry, the tested form may be a part): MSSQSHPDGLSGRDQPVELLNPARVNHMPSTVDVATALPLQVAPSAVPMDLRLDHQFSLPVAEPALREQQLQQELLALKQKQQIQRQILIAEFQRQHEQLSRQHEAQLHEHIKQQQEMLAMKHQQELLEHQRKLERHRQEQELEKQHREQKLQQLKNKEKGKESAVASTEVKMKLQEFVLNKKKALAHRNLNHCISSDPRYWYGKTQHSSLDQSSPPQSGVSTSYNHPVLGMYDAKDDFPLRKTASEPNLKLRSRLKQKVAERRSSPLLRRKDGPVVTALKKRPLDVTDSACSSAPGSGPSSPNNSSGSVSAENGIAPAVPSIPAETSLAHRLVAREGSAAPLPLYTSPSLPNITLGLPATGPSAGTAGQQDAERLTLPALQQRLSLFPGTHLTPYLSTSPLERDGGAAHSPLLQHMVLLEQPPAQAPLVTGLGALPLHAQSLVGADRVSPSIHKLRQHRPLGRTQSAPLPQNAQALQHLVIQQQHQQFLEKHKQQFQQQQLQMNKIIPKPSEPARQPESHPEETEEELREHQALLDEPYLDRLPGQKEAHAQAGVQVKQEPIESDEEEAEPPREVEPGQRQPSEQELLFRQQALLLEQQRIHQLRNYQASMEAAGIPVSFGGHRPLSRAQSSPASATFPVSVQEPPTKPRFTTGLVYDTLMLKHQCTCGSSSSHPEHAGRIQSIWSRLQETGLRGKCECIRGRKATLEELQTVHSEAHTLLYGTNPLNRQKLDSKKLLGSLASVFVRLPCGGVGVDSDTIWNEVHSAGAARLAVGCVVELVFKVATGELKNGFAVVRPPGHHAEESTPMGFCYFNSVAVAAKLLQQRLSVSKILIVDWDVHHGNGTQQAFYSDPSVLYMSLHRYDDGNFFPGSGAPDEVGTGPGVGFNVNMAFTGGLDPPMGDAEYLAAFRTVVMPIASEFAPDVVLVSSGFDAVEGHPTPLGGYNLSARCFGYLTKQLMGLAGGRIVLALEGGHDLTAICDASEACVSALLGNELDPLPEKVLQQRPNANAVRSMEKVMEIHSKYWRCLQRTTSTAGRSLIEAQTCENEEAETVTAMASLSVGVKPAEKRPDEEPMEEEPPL

U-266 = experiment: Antiproliferative activity against human U-266 cells assessed as inhibition of cell proliferation incubated for 48 hrs by CCK8 assay; assay type: functional, cell-based; conditions: U-266, 48 h
RPMI-8226 [11] = experiment: Induction of apoptosis in human RPMI-8226 cells assessed as proportion of early apoptotic cells at 0.1 uM incubated for 24 hrs by AnnexinV-FITC/PI staining based flow cytometry (reference value: 10.63%); assay type: functional, cell-based
RPMI-8226 [12] = experiment: Induction of apoptosis in human RPMI-8226 cells assessed as proportion of early apoptotic cells at 0.5 uM incubated for 24 hrs by AnnexinV-FITC/PI staining based flow cytometry (reference value: 10.63%); assay type: functional, cell-based
RPMI-8226 [13] = experiment: Induction of apoptosis in human RPMI-8226 cells assessed as proportion of necrotic cells at 0.5 uM incubated for 24 hrs by AnnexinV-FITC/PI staining based flow cytometry (reference value: 0.49%); assay type: functional, cell-based
[14] = Metabolic stability of the compound in mouse liver microsomes assessed as parent compound remaining measured after 60 mins in presence of NADPH by LC-MS/MS analysis; assay type: ADME, Microsome; conditions: read-out: Stability
[15] = Metabolic stability of the compound in human liver microsomes assessed as parent compound remaining measured after 60 mins in presence of NADPH by LC-MS/MS analysis; assay type: ADME, Microsome; conditions: read-out: Stability
RPMI-8226 [16] = experiment: Induction of apoptosis in human RPMI-8226 cells incubated for 24 hrs by AnnexinV-FITC/PI staining based flow cytometry; assay type: functional, cell-based; conditions: dose 0.1-0.5 µM

Q: With `O=C(NO)c1ccc(COc2no[n+]([O-])c2S(=O)(=O)c2ccccc2)cc1` as the compound, how does the fold change (FC) [1] read?
A: 4.3

Q: What about the fold change (FC) [2] of the same compound?
A: 1.6

Q: What about the pIC50 [3] of the same compound?
A: 7.48

Q: And the Ratio IC50 (Homo sapiens)?
A: 45.5

Q: And the fold change (FC) [4]?
A: 0.7

Q: What about the fold change (FC) [5] of the same compound?
A: 1.2

Q: What about the fold change (FC) [6] of the same compound?
A: 1

Q: And the fold change (FC) [7]?
A: 0.6

Q: What about the fold change (FC) [8] of the same compound?
A: 1

Q: What about the fold change (FC) [9] of the same compound?
A: 5.1

Q: What about the “fold change (FC)” value [10] of the same compound?
A: 1.2

Q: And the pIC50 (Histone deacetylase 4)?
A: < 4.40

Q: And the pIC50 (U-266)?
A: 6.15

Q: What about the Activity (RPMI-8226 [11]) of the same compound?
A: Active

Q: And the Activity (RPMI-8226 [12])?
A: Active

Q: What about the Activity (RPMI-8226 [13]) of the same compound?
A: Active

Q: And the remaining at 1 h [14]?
A: < 0.35%

Q: What about the remaining at 1 h [15] of the same compound?
A: < 0.33%

Q: What about the Activity (RPMI-8226 [16]) of the same compound?
A: Dose-Dependent Effect
